Reference: PubChem BioAssay (NCI)
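Step 1: Grow cells in 96-well plates. Step 2: Expose to compound for 48 hours at 5 concentrations. Step 3: Interpolate endpoints linearly; if unreached, use highest concentration. Abbreviation: GI50, concentration required for 50% inhibition of growth. TGI: total growth inhibition.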

Legend:
Assay in all cases: DTP human tumour cell line panel, 48 h
HOP-62 NSCLC = test system: HOP-62 NSCLC
UACC-62 melanoma = test system: UACC-62 melanoma
NCI-H226 lung = test system: NCI-H226 lung
SNB-78 CNS = test system: SNB-78 CNS
786-0 renal = test system: 786-0 renal
SNB-75 CNS = test system: SNB-75 CNS
HCC-2998 colon = test system: HCC-2998 colon
DLD-1 colon = test system: DLD-1 colon
T-47D breast = test system: T-47D breast
MDA-MB-435 = test system: MDA-MB-435

CN(CCCN1C(=O)c2cccc3cc([N+](=O)[O-])cc(c23)C1=O)CCN(C)CCCN1C(=O)c2cccc3cc([N+](=O)[O-])cc(c23)C1=O
TGI (HOP-62 NSCLC): > 39.3 µM | TGI (UACC-62 melanoma): > 39.3 µM | TGI (NCI-H226 lung): > 39.3 µM | TGI (SNB-78 CNS): > 39.3 µM | TGI (786-0 renal): > 39.3 µM | TGI (SNB-75 CNS): > 39.3 µM | TGI (HCC-2998 colon): > 39.3 µM

CCOC(=O)C(=O)Nc1c(C)cccc1C(C)(C)C
TGI (HOP-62 NSCLC): > 100 µM | TGI (UACC-62 melanoma): > 100 µM | TGI (NCI-H226 lung): > 100 µM | TGI (SNB-78 CNS): > 100 µM | TGI (786-0 renal): > 100 µM | TGI (SNB-75 CNS): > 100 µM | TGI (HCC-2998 colon): > 100 µM

C=CC(=O)Nc1ccccc1CC(c1c[nH]c2ccccc12)c1c[nH]c2ccccc12
TGI (HOP-62 NSCLC): 35.1 µM | TGI (UACC-62 melanoma): 31.2 µM | TGI (NCI-H226 lung): 40.1 µM | TGI (SNB-78 CNS): 43.8 µM | TGI (786-0 renal): 36.2 µM | TGI (SNB-75 CNS): 28.4 µM | TGI (HCC-2998 colon): 33.4 µM

O=C(O)/C(Cl)=C(Cl)/C=N/NC(=O)c1cc2ccccc2cc1O
TGI (HOP-62 NSCLC): > 100 µM | TGI (DLD-1 colon): > 100 µM | TGI (UACC-62 melanoma): 14.6 µM | TGI (NCI-H226 lung): 87.2 µM | TGI (SNB-78 CNS): > 100 µM | TGI (786-0 renal): > 100 µM | TGI (SNB-75 CNS): > 100 µM

CC1(C2COC(=O)C2)SCCCS1 (stereo not drawn)
TGI (HOP-62 NSCLC): > 100 µM | TGI (DLD-1 colon): > 100 µM | TGI (UACC-62 melanoma): > 100 µM | TGI (NCI-H226 lung): > 100 µM | TGI (786-0 renal): > 100 µM | TGI (SNB-75 CNS): > 100 µM | TGI (HCC-2998 colon): > 100 µM

Cc1ccc(C2[C@H]3C(=O)N(c4ccc(Cc5ccc(N6C(=O)[C@@H]7ON(c8ccccc8)C(c8ccc(C)cc8)[C@@H]7C6=O)cc5)cc4)C(=O)[C@H]3ON2c2ccccc2)cc1 (stereo partly drawn)
TGI (HOP-62 NSCLC): > 100 µM | TGI (DLD-1 colon): > 100 µM | TGI (UACC-62 melanoma): > 100 µM | TGI (NCI-H226 lung): > 100 µM | TGI (786-0 renal): > 100 µM | TGI (SNB-75 CNS): > 100 µM | TGI (HCC-2998 colon): > 100 µM

COC(=O)c1ccc(C(=O)OC)c2nc3cc(Cl)ccc3nc12
TGI (HOP-62 NSCLC): > 100 µM | TGI (DLD-1 colon): > 100 µM | TGI (UACC-62 melanoma): > 100 µM | TGI (NCI-H226 lung): > 100 µM | TGI (786-0 renal): > 100 µM | TGI (SNB-75 CNS): > 100 µM | TGI (HCC-2998 colon): > 100 µM

C=C1C(=O)O[C@H]2[C@H]1CC/C(COC(=O)CCCCCCCC(=O)OC/C1=C/CC[C@@]3(C)O[C@H]3[C@H]3OC(=O)C(=C)[C@@H]3CC1)=C\CC[C@@]1(C)O[C@@H]21
GI50 (HOP-62 NSCLC): 2.19 µM | TGI (HOP-62 NSCLC): 5.68 µM | GI50 (UACC-62 melanoma): 2.45 µM | TGI (UACC-62 melanoma): 6.51 µM | GI50 (NCI-H226 lung): 2.63 µM | TGI (NCI-H226 lung): 6.97 µM | GI50 (T-47D breast): 2.3 µM | TGI (T-47D breast): 8.26 µM | GI50 (786-0 renal): 1.68 µM | TGI (786-0 renal): 3.63 µM | GI50 (SNB-75 CNS): 12.3 µM | TGI (SNB-75 CNS): 35.9 µM | GI50 (HCC-2998 colon): 1.9 µM | TGI (HCC-2998 colon): 3.88 µM | GI50 (MDA-MB-435): 2.59 µM | TGI (MDA-MB-435): 7.33 µM

CC(=O)O[C@@H]1C2=C(C)C3(CC3)[C@@](C)(O)C(=O)C2=C[C@@]1(C)CO
GI50 (HOP-62 NSCLC): 0.474 µM | TGI (HOP-62 NSCLC): 4.52 µM | GI50 (UACC-62 melanoma): 1.71 µM | TGI (UACC-62 melanoma): 3.59 µM | GI50 (NCI-H226 lung): 2.12 µM | TGI (NCI-H226 lung): 5.22 µM | GI50 (T-47D breast): 0.635 µM | TGI (T-47D breast): 7.03 µM | GI50 (786-0 renal): 2.04 µM | TGI (786-0 renal): 6.1 µM | GI50 (SNB-75 CNS): 0.217 µM | TGI (SNB-75 CNS): 1.38 µM | GI50 (HCC-2998 colon): 0.496 µM | TGI (HCC-2998 colon): 1.89 µM | GI50 (MDA-MB-435): 0.48 µM | TGI (MDA-MB-435): 1.72 µM

COc1cc2c(NC3CCN(C(C)C)CC3)nc(C3CCCCC3)nc2cc1OCCCN1CCCC1
GI50 (HOP-62 NSCLC): 3.22 µM | TGI (HOP-62 NSCLC): 10.1 µM | GI50 (UACC-62 melanoma): 5.47 µM | TGI (UACC-62 melanoma): 16.8 µM | GI50 (NCI-H226 lung): 12.3 µM | TGI (NCI-H226 lung): 26.9 µM | GI50 (T-47D breast): 2.54 µM | TGI (T-47D breast): 7.08 µM | GI50 (786-0 renal): 6.14 µM | TGI (786-0 renal): 17.7 µM | GI50 (SNB-75 CNS): 2.09 µM | TGI (SNB-75 CNS): 10.8 µM | GI50 (HCC-2998 colon): 9.03 µM | TGI (HCC-2998 colon): 27.4 µM | GI50 (MDA-MB-435): 1.67 µM | TGI (MDA-MB-435): 3.34 µM

CSc1nnc(-c2cc3c([nH]c4ccccc43)c(-c3cccc(O)c3)n2)n1-c1ccc(C)cc1
GI50 (HOP-62 NSCLC): 2.47 µM | TGI (HOP-62 NSCLC): 7.45 µM | GI50 (UACC-62 melanoma): 3.28 µM | TGI (UACC-62 melanoma): 21.5 µM | GI50 (NCI-H226 lung): 3.32 µM | TGI (NCI-H226 lung): 18 µM | GI50 (T-47D breast): 1.95 µM | TGI (T-47D breast): 8.16 µM | GI50 (786-0 renal): 4.61 µM | TGI (786-0 renal): 32.2 µM | GI50 (SNB-75 CNS): 1.66 µM | TGI (SNB-75 CNS): 5.33 µM | GI50 (HCC-2998 colon): 12.3 µM | TGI (HCC-2998 colon): > 100 µM | GI50 (MDA-MB-435): 1.32 µM | TGI (MDA-MB-435): 11.2 µM

COc1c(B(O)O)cccc1-c1nc2ccc3[nH]ncc3c2c2c1CCCC2
GI50 (HOP-62 NSCLC): 1.31 µM | TGI (HOP-62 NSCLC): 19.6 µM | GI50 (UACC-62 melanoma): 2.71 µM | TGI (UACC-62 melanoma): 10.2 µM | GI50 (NCI-H226 lung): 1.51 µM | TGI (NCI-H226 lung): 12.2 µM | GI50 (T-47D breast): 3.36 µM | TGI (T-47D breast): > 37.7 µM | GI50 (786-0 renal): 1.2 µM | TGI (786-0 renal): 11.9 µM | GI50 (SNB-75 CNS): 0.0307 µM | TGI (SNB-75 CNS): 0.382 µM | GI50 (HCC-2998 colon): 2.35 µM | TGI (HCC-2998 colon): 6.12 µM | GI50 (MDA-MB-435): 3.45 µM | TGI (MDA-MB-435): 12.1 µM

CC(C)(C)[Si](C)(C)OCCc1ccccc1C1CC2(S(=O)(=O)c3ccccc3)ON1CC2S(=O)(=O)c1ccccc1 (stereo not drawn)
TGI (HOP-62 NSCLC): > 100 µM | TGI (UACC-62 melanoma): > 100 µM | TGI (NCI-H226 lung): > 100 µM | TGI (T-47D breast): > 100 µM | TGI (786-0 renal): > 100 µM | TGI (SNB-75 CNS): > 100 µM | TGI (HCC-2998 colon): > 100 µM | TGI (MDA-MB-435): > 100 µM

Cc1nc2sc(C(=O)Nc3ccccc3)c(N)c2cc1C(O)c1ccccc1 (stereo not drawn)
GI50 (HOP-62 NSCLC): 0.448 µM | TGI (HOP-62 NSCLC): > 53.8 µM | GI50 (UACC-62 melanoma): 0.382 µM | TGI (UACC-62 melanoma): > 48.3 µM | GI50 (NCI-H226 lung): 1.24 µM | TGI (NCI-H226 lung): > 100 µM | GI50 (T-47D breast): 1.27 µM | TGI (T-47D breast): > 31.8 µM | GI50 (786-0 renal): 0.553 µM | TGI (786-0 renal): 20 µM | GI50 (SNB-75 CNS): 0.244 µM | TGI (SNB-75 CNS): > 72.8 µM | GI50 (HCC-2998 colon): 0.329 µM | TGI (HCC-2998 colon): 6.27 µM | GI50 (MDA-MB-435): 0.0308 µM | TGI (MDA-MB-435): 0.102 µM
